Source: patent publication US9096581B2, “Fluoroethyl thiamine or salts thereof and application thereof in preparation of anticoccidial drugs” (GUANGZHOU ORIGMOL FEED-ADDITIVE CO., LTD, priority 2012, dated 2015)
Entries after “also recorded” stand apart in the source; their conditions may differ. Structures can show the parent of a compound that is named as a salt.

Experiments:
[1] = test system: Eimeria acervulina HT; experiment: Anticoccidial effect on Eimeria acervulina in chickens (Embodiment 5); type: in vivo; settings: 125 ppm in feed; for average weight gain / number of oocysts in feces: 7th day after infecting; for survival rate: chickens; for relative decrement rate of oocysts: vs infected non-drug control; for relative weight gain rate: vs non-infected non-drug control
Description: (§1) 1-day-old Lingnan yellow chickens, purchased from Poultry Research Unit, Bureau of Animal Husbandry, Guangdong Academy of Agricultural Sciences, bred under coccidium-free environment, and subjected to grouping and experiment after no coccidium oocyst is found in feces through microscopic examination when the chickens are 14 days old.
Eimeria acervulina HT, having no resistance to various anticoccidial drugs. Breeding and amplifying in chickens before the experiment, collecting fresh eggs, sporulating, and preserving at 4° C. for later use.
(§2) Weighing the 14-day-old experiment chickens one by one, rejecting emaciated chickens or overweighted chicks, selecting healthy chickens of which the individual body weight difference is within 20 g, and dividing to 4 groups with 30 chickens in each group. Groups 1 and 2 are respectively a non-drug-applied and non-coccidium-killed control group and a coccidium-infected and non-drug-applied control group, and Groups 3 and 4 are added with fluoroethyl thiamine hydrochloride or amprolium according to Table 8. Feeding with feed containing different drugs on the day of experiment grouping, enabling the chickens to freely take in the feed, and feeding the chickens until the experiment ends.
(§3) Except the non-coccidium-infected and non-drug-applied control group, giving each experiment chicken in each experiment group with 5×10^5 eimeria acervulina sporulated oocysts via the crop on the next day of the grouping day. During experiment, observing and recording the spirit, appetite, bloody feces situation, death count and the like of the chickens every day. On the 7th day after infecting, respectively weighing each group, calculating the relative weight gain rate, simultaneously collecting feces samples, and counting the number of oocysts per gram of feces.
2.3.1 Weight gain: respectively weighing each chicken when the experiment starts and ends, and calculating the average weight gain and relative weight gain rate. The relative weight gain rate=(the average weight gain in the experiment groups/the average weight gain in the non-infected and non-drug-applied control group)×100%.
2.3.2 Survival rate: recording the number of dead chickens of each group, autopsying to determine the death cause, and calculating the survival rate. The survival rate=(the total number of the chickens in the experiment groups−the number of the chickens dying of coccidium infection during the experiment)/the total number of the chickens in the experiment groups×100%.
2.3.3 oocyst counting and relative decrement rate of oocysts: on the 7th day after coccidium infection, digesting the collected fresh feces with 10% sodium hypochlorite for 15 min, counting the number of the coccidium oocysts per gram of feces through a blood counting chamber, and calculating the relative decrement rate of the oocysts in the feces of each experiment group. The relative decrement rate of oocysts=(the number of the oocysts per gram of feces in the coccidium-killed and non-drug-applied control group−the number of the oocysts per gram of feces in the experiment groups)/the number of the oocysts per gram of feces in the coccidium-killed and non-drug-applied control group×100%.

[2] = test system: Eimeria maxima PY strains; experiment: Anticoccidial effect on Eimeria maxima in chickens (Embodiment 6); type: in vivo; settings: 125 ppm in feed; for average weight gain / number of oocysts in feces: 7th day after infecting; for survival rate: chickens; for relative decrement rate of oocysts: vs infected non-drug control; for relative weight gain rate: vs non-infected non-drug control
Description: as §1
Eimeria maxima PY strains, having no resistance to various anticoccidial drugs. Breeding and amplifying in chickens before the experiment, collecting fresh oocysts, sporulating, and preserving at 4° C. for later use.
as §2, with “chickens,” for “chicks,”, “10.” for “8.”, “in” for “in the”
as §3, with “3×10^5” for “5×10^5”, “maxima” for “acervulina”
The anticoccidial effect evaluation is the same with Embodiment 5.

Structure (SMILES) | average weight gain [1] [g] | number of oocysts in feces [1] [g⁻¹] | survival rate [1] [%] | relative decrement rate of oocysts [1] [%] | relative weight gain rate [1] [%] | average weight gain [2] [g] | number of oocysts in feces [2] [g⁻¹] | survival rate [2] [%] | relative decrement rate of oocysts [2] [%] | relative weight gain rate [2] [%] | inhibition of eimeria acervulina, in words ([1]; hydrochloride) | inhibition of eimeria maxima, in words ([2]; hydrochloride)
CCCc1ncc(C[n+]2ccccc2C)c(N)n1 [amprolium, Amprolium, reference compound] | 166.6 | 29800 | 100 | 88.8 | 86.4 | 167.4 | 8600 | 100 | 79.5 | 93.1 | – | –
CCc1ncc(C[n+]2csc(CCF)c2C)c(N)n1 [fluoroethyl thiamine hydrochloride, 3-[(4-amino-2-ethyl-5-pyrimidyl)-methylene]-5-(2-fluoroethyl)-4-methyl thiazole chloride hydrochloride] | 186.5 | 6500 | 100 | 97.6 | 96.7 | 176.3 | 3700 | 100 | 91.2 | 98.0 | significant inhibition effect on the eimeria acervulina; also recorded: superior to amprolium in eimeria acervulina inhibition | significant inhibition effect on eimeria maxima; also recorded: superior to amprolium in eimeria maxima inhibition
